Measured values from US5612352A, “Heterocyclic compounds” (Zeneca Limited, priority 1992, dated 1997).

How the values were obtained:
Squalene Synthase = biological target: T1, Squalene Synthase (Rattus norvegicus, UniProt Q02769); test: Inhibition of Squalene Synthase (formation of squalene from tritiated farnesyl pyrophosphate, rat liver microsomal protein); assay type: biochemical; details: rat liver microsomes, 20 μM 1-[3H]-farnesyl pyrophosphate, 37° C., 15 minutes; read-out: IC50 (concentration which results in a 50% inhibition of squalene production)
T1 construct: from tissue; host or cells: rat liver microsomes
T1 sequence (Q02769 1-416): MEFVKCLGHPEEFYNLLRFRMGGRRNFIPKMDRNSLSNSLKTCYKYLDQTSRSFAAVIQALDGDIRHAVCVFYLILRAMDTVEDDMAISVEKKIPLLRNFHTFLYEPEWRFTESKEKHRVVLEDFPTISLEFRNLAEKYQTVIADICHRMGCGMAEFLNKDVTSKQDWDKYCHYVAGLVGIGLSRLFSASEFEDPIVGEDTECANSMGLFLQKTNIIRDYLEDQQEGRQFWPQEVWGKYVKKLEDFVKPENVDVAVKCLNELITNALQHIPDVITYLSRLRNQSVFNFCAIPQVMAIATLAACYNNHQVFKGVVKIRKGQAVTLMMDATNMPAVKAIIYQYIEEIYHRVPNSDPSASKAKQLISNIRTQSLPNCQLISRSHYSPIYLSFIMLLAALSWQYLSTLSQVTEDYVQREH
Procedure: (a) Inhibition of Squalene Synthase
In this test, the ability of a compound to prevent the . formation of squalene from a radioactive substrate (tritiated farnesyl pyrophosphate) is assessed.
The test compound is incubated at a concentration of 25 micromolar in 200 μl of a buffered solution containing potassium phosphate (50 mM), MgCl2 (4.95 mM), KF (9.9 mM), NADPH (0.9 mM) and rat liver microsomal protein (20 μg). Rat liver microsomes are prepared by the method described in published European Patent Application No. 324,421 and stored in liquid nitrogen prior to assay. Assay vials are kept at 37° C. throughout the incubation.
The reaction is started with the addition of the substrate (1-[^3 H]-farnesyl pyrophosphate), final concentration 20 μM, and stopped after 15 minutes reaction time with the addition of 50 μl of 4% KOH. The reaction products are separated from unreacted substrate after application to a C-18 octadecyl 1ccBond column (Analytichem Int product No. 617101). An aqueous fraction is eluted with 250 μl of 0.1M KOH. Squalene is then eluted with 1.0 ml 10% ethylacetate in hexane and radioactivity determined. The difference in radioactivity in the presence and absence of the test compound is used to determine the level of inhibition. […] The IC50 can then be determined from a plot of percentage inhibition against concentration of test compound.

[1] = system: de novo hepatic cholesterol synthesis; test: Acute Rat Cholesterol Synthesis Assay (de novo hepatic cholesterol synthesis from exogenously administered 14C-acetate); assay type: in vivo; details: female rats, oral gavage, ip or iv dosing (route not given), [2-14C]-acetate ip 1 hour after dose, blood after a further hour
Procedure: (b) Acute Rat Cholesterol Synthesis Assay
This is an acute in vivo test in the rat to measure de novo hepatic cholesterol synthesis from exogenously administered ^14 C-acetate.
Female rats (35-55 g) are housed in reverse lighting conditions (red light from 0200h-1400h) for a period of about 2 weeks prior to test. Animals are allowed free access to chow and drinking water throughout this period. At test, animals should weigh 125-150 g.
Test compounds may be administered by oral gavage, dissolved or suspended in 0.5% polysorbate, or by ip or iv dosing. Control animals receive vehicle alone. After 1 hour the rats are injected ip with 25 μCi [2-^14 C]-acetate (NEN DUPONT. specific activity, 45-60 mCi/mmol NEC-085H, or AMERSHAM specific activity, 50-60 mCi/mmol CFA 14) in a volume of 0.25 ml saline (100 μCi/ml). After a further hour, rats are terminally anaesthetised with halothane and a blood sample obtained from the abdominal vena cava.
1 ml of plasma is lyophilised and then saponified in 2 ml ethanolic KOH (1 part 33% KOH, 9 parts ethanol) at 75° C. for 2 hours. After addition of an equal quantity of water, non-saponifiable lipids are extracted with two 5 ml volumes of hexane. The hexane extracts are evaporated to dryness and the residues dissolved in ethanol to determine cholesterol specific radioactivity. ED50 values can be determined in the standard way.

c1ccc(-c2ccc(SC3CN4CCC3CC4)cc2)cc1 (stereo not drawn) [Example 10, 3-(4-biphenylthio)quinuclidine]
IC50 (Squalene Synthase): 21 nM
ED50 [1]: 46 mg/kg

OC1C2CCN(CC2)C1Cc1ccc(-c2ccccc2)cc1 (stereo not drawn) [Example 2, 2-(4-biphenylmethyl)-3-quinuclidinol]
IC50 (Squalene Synthase): 120 nM
